Assay results as given in patent publication US20040209933A1, “Oxazole derivatives” (priority 2003, published 2004).

Experiments:
QG56 cells = experiment: BrdU/Hoechst quenching assay, cell kinetic FACS analysis (G1 cell cycle arrest); assay type: cell-based; settings: incubation for 24 h; for percentage of QG56 cells arrested in the first G1 phase, compared with reference compound: 3 μM; for n-fold increase of cells arrested in first cell cycle: compound concentration 3 μM, QG56 squamous cell carcinoma cells, Control (DMSO) = 1
Procedure: A squamous cell carcinoma cell line (e.g. QG 56) was cultivated in DMEM/10%FCS/2 mM glutamine at about 60% confluency. Exponentially growing cells were seeded at a density of 1×10^4 cells/cm^2 in 2 ml of medium per 6 wells. After 24 hours medium was replaced and compounds were added.
For the BrdU/Hoechst quenching assay the media were supplemented with […] and deoxycytidine, respectively. All experiments were performed in 6 well culture plates.
The cell culture setup is as described above. All compounds were dissolved in DMSO at a concentration of 10 mM.
Adherent cells were harvested at 24 h by trypsinization and cells from the supernatant were added to the population.
After centrifugation cell pellets were resuspended at 1-10×10^5 cells/ml in DNA-staining puffer (100 mM Tris pH 7.4, 154 mM NaCl, 1 mM CaCl2, 0.5 mM MgCl2, 0.2% BSA, 0.1% NP40) supplemented with 5 ug/ml RNAse A and 1.5 ug/ml Hoechst 33258. After 15 min propidium iodide was added to a final concentration of 1.5 ug/ml for another 15 min. The fluorochrome labeled cells were analysed on a flow cytometer (BD LSR) applying dual laser excitation (UV and 488 nm).
Compounds of Example 1, Example 2 and Example 4 were tested at a concentration of 3 μM.

Row | melting point | SMILES | percentage of QG56 cells arrested in the first G1 phase, compared with reference compound (QG56 cells) | n-fold increase of cells arrested in first cell cycle (QG56 cells)
1 | 148 to 151 °C | COc1ccc(C=Cc2nc(COc3ccc(CCCCn4ccnn4)cc3)co2)cc1 [Example 1, 1-[4-(4-{2-[2-(4-Methoxy-phenyl)-vinyl]-oxazol-4-ylmethoxy}-phenyl)-butyl]-1H-[1,2,3]triazole] | higher percentage | 23.7 n-fold
2 | 138 to 140 °C | FC(F)(F)Oc1ccc(C=Cc2nc(COc3ccc(CCCCn4ccnn4)cc3)co2)cc1 [Example 2, 1-[4-(4-{2-[2-(4-Trifluoromethoxy-phenyl)-vinyl]-oxazol-4-ylmethoxy}-phenyl)-butyl]-1H-[1,2,3]triazole] | higher percentage | 19.2 n-fold
3 |  | C(=Cc1nc(COc2ccc(CCCCn3ccnn3)cc2)co1)c1ccc2c(c1)OCO2 [Example 4, 1-(4-{4-[2-(2-Benzo[1,3]dioxol-5-yl-vinyl)-oxazol-4-ylmethoxy]-phenyl}-butyl)-1H-[1,2,3]triazole] | higher percentage | 17.9 n-fold
4 | 144 to 145 °C | FC(F)(F)Sc1ccc(C=Cc2nc(COc3ccc(CCCCn4ccnn4)cc3)co2)cc1 [Example 5, 1-[4-(4-{2-[2-(4-Trifluoromethylsulfanyl-phenyl)-vinyl]-oxazol-4-ylmethoxy}-phenyl)-butyl]-1H-[1,2,3]triazole] |  | 
5 |  | FC(F)(F)c1ccc(C=Cc2nc(COc3ccc(CCCCn4ccnn4)cc3)co2)cc1 [reference compound, 1-[4-(4-{2-[2-(4-Trifluoromethyl-phenyl)-vinyl]-oxazol-4-ylmethoxy}-phenyl)-butyl]-1H-[1,2,3]triazole, reference compound] |  | 17.2 n-fold
